In brackets after ≈: the same amount, converted by molar mass. Read-outs that look alike come from different tables or passages of the source.
Tests used:
[1] = tested on: IL-6; assay: Ex vivo LPS-stimulated IL-6 in blood of dosed healthy subjects, PK/PD inhibitory Emax model; set-up: species or system human
Protocol: Blood samples of 10 mL were collected for PD analysis. For the SAD cohorts, blood was collected before dosing and 1, 12, and 24 hours after dosing. For the MAD cohorts, on day 1 blood was collected before the morning dose and 4 and 12 hours after the morning dose (prior to the evening dose); on day 7, blood was collected before the morning dose and 4 and 12 hours after the morning dose.
Additional details of the assays for analyzing p-HSP27 and cytokines are included in the Supplementary Information.
Pharmacodynamics. PD data analysis was conducted using Microsoft Excel 2010 (Microsoft, Redmond, WA), Meso Scale Discovery Workbench® analysis software (Rockville, MD), and Phoenix WinNonlin, version 8.2.
Sample Preparation for Cytokine Analysis. For each sample, 180 μL aliquots were transferred into 7 wells of a round bottom 96 well tissue culture polystyrene low evaporation plate. […] No outer wells on the plates were used and all wells surrounding the samples contained 200 μL of phosphate buffered saline.
DMSO was added to all wells in groups ‘A’ and ‘C’ to a final concentration of 0.1% ([…] of a 2% DMSO solution in DMEM containing 10% FBS and 1% penicillin/streptomycin/glutamine). […] Samples were mixed gently for 30 seconds on a plate shaker using pin tools, then placed in an incubator at 37° C./5% CO2 for 1 hour.
Samples in groups ‘A’ and ‘B’ were stimulated with lipopolysaccharide at a final concentration of 100 ng/mL. A stock solution of lipopolysaccharide at 1 mg/mL in DMEM containing 10% FBS and 1% penicillin/streptomycin was diluted to […] in DMEM containing 10% FBS and 1% penicillin/streptomycin, and […] of this working solution was added per well of blood for all samples in groups ‘A’ and ‘B’. […] of DMEM containing 10% FBS only was added per well of blood for all samples in group ‘C’ (unstimulated samples). Samples were mixed gently for 30 seconds on a plate shaker using pin tools, then placed in an incubator at 37° C./5% CO2 for 5 hours.
Following the incubation, the plates were removed from the incubator and sealed with adhesive clear plate seals. The plates were then centrifuged for 10 minutes at 1800×g at room temperature. […] of plasma was removed from each well and transferred to a 96-well polypropylene round bottom master plate, which was then sealed and frozen at −80° C. until all samples from the respective cohort were generated. Once all samples from a given cohort were generated, the samples were analyzed for cytokine (TNF-α, IL-1b, IL-6, and IL-8) production using Meso Scale Discovery Technology.
Analysis of Cytokine Levels Using Meso Scale Discovery Technology. All lipopolysaccharide plasma samples were analyzed for cytokine production with a V-Plex Human Proinflammatory Panel II (4-Plex) Kit from Meso Scale Discovery (Rockville, MD). The master plates containing the plasma samples were thawed on ice, and a daughter plate consisting of a 25-fold dilution of each plasma sample (3 μL of plasma plus 72 μL of Meso Scale Discovery Diluent 2) was generated for each master plate. The diluted plasma samples from the daughter plates were used in the cytokine analysis. The Meso Scale Discovery 4-plex plates were washed 3 times with 150 μL/well of wash buffer (1×KPL phosphate buffered saline with Tween 20 from SeraCare [Milford, MA]). Prepared calibrators and the samples from the daughter plates were added to the washed Meso Scale Discovery 4-plex plates at 50 μL/well. The 4-plex plates were sealed and shaken overnight at 4° C.
After the overnight incubation, the samples were removed by decanting. The 4-plex plates were then washed 3 times with 150 μL/well of wash buffer. […]

[2] = tested on: IL-8; assay: IL-1β stimulated IL-8 production in human whole blood; type: cell-based
Protocol: Compounds were serially diluted in 100% DMSO (Sigma-Aldrich, D2650) followed by a 10× dilution into RPMI (Gibco, 11875). After the one-hour incubation with the compounds or vehicle, 2 μL of IL-1β (R&D, 201-LB-010) in RPMI (Gibco, 11875) was added for a final concentration of 0.5 μg/mL to each well except for the no stimulus wells. After six hours of incubation with IL-1β, plasma was harvested and assayed for TNF-α, IL-6 and IL-8 using Meso Scale Discovery Technology V-plex human cytokine kits according to the kit protocol.

[3] = Phase 2a ATI-450 plus MTX in moderate to severe rheumatoid arthritis: clinical activity (DAS28-CRP, ACR20/50/70, joint counts, hsCRP); type: in vivo, human; settings: 50 mg BID plus MTX
[4] = tested on: IL-1β; assay: LPS stimulated IL-1β production in human whole blood; type: cell-based
Protocol: Compounds were serially diluted in 100% DMSO (Sigma-Aldrich, D2650) followed by a 50× dilution into DMEM/10% FBS (Gibco, 11965/26140). Vehicle consisted of DMSO at a final assay concentration of 0.1%. Pin tools (V&P Scientific, Inc., VP246) were placed in the wells and the plate was placed at 37° C. with 5% CO2, with gently shaking for five minutes, then pin tools were removed and saved. […] Pin tools were placed in the wells in the same orientation as the previous step and gently shook for five minutes at 37° C. with 5% CO2, then removed. […] The plasma was harvested and assayed for TNF-α, IL-1β, and IL-6 using Meso Scale Discovery Technology V-plex human cytokine kits according to the kit protocol. The kit plates were read using an MSD Sector S 6000 instrument. Calculations to establish cytokine calibration curves and to determine analyte concentrations in the samples were carried out using the MSD DISCOVERY WORKBENCH® analysis software.

Cc1cnc(-c2ccnc(C(C)(C)O)n2)cc1-n1c(C)cc(OCc2ncc(F)cc2F)c(Cl)c1=O (single isomer, unassigned) [ATI-450, 3-chloro-4-((3,5-difluoropyridin-2-yl)methoxy)-2′-(2-(2-hydroxypropan-2-yl)pyrimidin-4-yl)-5′,6-dimethyl-2H-[1,4′-bipyridin]-2-one]
Cmax (Multiple of IC80) ([1]; 50 mg BID, day 7): 0.3x | Ctrough (Multiple of IC80) ([1]; 50 mg BID, day 7): 0.1x | inhibition at 50 mg ([1]; Homo sapiens, 50 mg BID, part of the dosing interval): > 50% | IC80 ([1]; Homo sapiens, calculated from IC50, combined SAD and MAD data, read-out: IC80, plasma concentration at 80% of maximal inhibition): 0.748 µg/mL | IC50 ([1]; Homo sapiens, inhibitory Emax model, combined SAD and MAD data, read-out: IC50, plasma concentration at half maximal inhibition): 0.187 µg/mL | IC80, plasma concentration at 80% of maximal inhibition ([1]; calculated from IC50, combined SAD and MAD data): 0.7478 µg/mL | IC80 [2]: 0.04 ± 0.012 µg/mL (≈ 0.0778 µM) | swollen and tender joint count over time ([3]; 84 days): sustained decrease in swollen joint count and tender joint count | DAS28-CRP change from baseline over time ([3]; through day 84): rapid and sustained onset of efficacy | hsCRP change from baseline over time ([3]; through day 84): rapid and sustained reduction in hsCRP | median reduction from baseline in hsCRP ([3]; throughout the 12 weeks): > 40% | mean change from baseline in DAS28-CRP (reduction) ([3]; week 12): 2.0 | ACR20 response ([3]; week 12, 15 subjects): 60% | ACR50 response ([3]; week 12, 15 subjects): 33% | ACR70 response ([3]; week 12, 15 subjects): 20% | proportion of subjects with DAS28-CRP <2.6 (remission) ([3]; week 12, 15 subjects): 20% | proportion of subjects with DAS28-CRP ≤ 3.2 (low disease activity or remission) ([3]; week 12, 15 subjects): 40% | IC50 ([4]; Human Whole Blood, LPS, 100 ng/mL, 4 or 24 hr, read-out: IC50, IL-1β): 6.1 nM | IC50 ([4]; human whole blood, LPS 100 ng/mL, read-out: IC50, LPS-stimulated IL-1β): 10 to 100 nM
